Source: patent publication US10314870B2, “Tropism modified cancer terminator virus (Ad.5/3 CTV;AD.5/3-CTV-M7)” (priority 2012, dated 2019)

System: GBM6 intra-cerebral tumors
Test: Survival of mice with orthotopic GBM6 tumors after intratumoral virus infusion
Format: in vivo, athymic mice
Settings: virus 1×10^8 pfu intratumoral day 7; SAHA 25 mg/kg QD PO for 5 days
Procedure: FIG. 24. SAHA enhances MDA-7/IL-24 toxicity in vivo. GBM6 cells (0.5×10^6) were implanted into the brains of athymic mice. Seven days later tumors were infused with 1×10^8 pfu of either Ad.5/3-cmv or Ad.5/3-mda-7. Twenty-four h after virus infusion animals were treated with vehicle diluent (cremophore, PO) or vorinostat (SAHA, 25 mg/kg QD, PO) for 5 days. Animal survival was monitored on a daily basis (n=2, 8 animals total).
FIG. 25A-E. Ad.5/3-PEG-E1A-mda-7 (Ad.5/3-CTV; Ad.5/3-CTV-M7) prolongs animal survival in a dose-dependent fashion and does so to a greater extent than Ad.5/3- mda-7. Panel A. GBM6-luciferase cells (0.5 ×10^6) were implanted into the brains of athymic mice. Seven days later tumors were infused with 1×10^8 pfu of either: Ad.5/3-cmv: Ad.5/3-mda-7; Ad.5/3-PEG-E1A; or Ad.5/3-PEG-E1A-mda-7 (Ad.5/3-CTV; Ad.5/3-CTV-M7). On the days indicated in the graph animals were injected with luciferin (150 mg/kg) and were imaged 15 min later following placement into an IVIS Xenogen imager. […] Animal survival was monitored on a daily basis (n=2, 6 animals total) ((a) p<0.04 greater survival than Ad.5/3-cmv; (b) p<0.0008 greater survival than Ad.5/3-cmv; (c) p<0.04 greater survival than Ad.5/3-mda-7; (d) p<0.004 greater survival than Ad.5/3-mda-7; (e) p<0.0008 greater survival than Ad.5/3-PEG-E1A-mda-7 (Ad.5/3-CTV; Ad.5/3-CTV-M7) at a dose of 3×10^8 pfu). […]

O=C(CCCCCCC(=O)Nc1ccccc1)NO [SAHA]
animal survival: did not significantly enhance animal survival
